From the supplement of paper PMC10307832 come the findings set out here.

Common to all, as to experiment: relative viability (nuclei count vs DMSO), 5 days (fraction); higher = more cells survive
Compound in the assay “XMD14-99 + Phenformin”: CN1CCN(CC1)C2=CC(=C(C=C2)NC3=NC(=C(S3)C(=O)C4=C(C=CC=C4Cl)Cl)N)OC [XMD14-99] + N=C(N)NC(=N)NCCc1ccccc1 [Phenformin] (partner 250 µM)
A digest of the protocol: (§1)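 The day after seeding in 1536-well plates, lung cancer cell lines were treated by pin tool with a single drug, or with a fixed anchor-drug dose together with five library-drug doses (not always all listed) in √10 steps. After 5 days, a combined fix-and-stain solution (final 0.05% Triton X-100, 1% formaldehyde, 1 ug/ml Hoechst) was added. Nuclei counted on 4× images gave relative viability as treated counts over vehicle counts, reported as the median of duplicate plates.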

Compound in the assay “AZD1208 + Pictilisib”: N[C@@H]1CCCN(c2c(/C=C3\SC(=O)NC3=O)cccc2-c2ccccc2)C1 [AZD1208] + CS(=O)(=O)N1CCN(Cc2cc3nc(-c4cccc5[nH]ncc45)nc(N4CCOCC4)c3s2)CC1 [Pictilisib] (partner 1 µM)
In outline: as §1

Compound in the assay “AZD1208 + Vorinostat”: N[C@@H]1CCCN(c2c(/C=C3\SC(=O)NC3=O)cccc2-c2ccccc2)C1 [AZD1208] + O=C(CCCCCCC(=O)Nc1ccccc1)NO [Vorinostat] (partner 1 µM)
A digest of the protocol: as §1

Compound in the assay “AZD1208 + Trametinib”: N[C@@H]1CCCN(c2c(/C=C3\SC(=O)NC3=O)cccc2-c2ccccc2)C1 [AZD1208] + CC(=O)Nc1cccc(-n2c(=O)n(C3CC3)c(=O)c3c(Nc4ccc(I)cc4F)n(C)c(=O)c(C)c32)c1 [Trametinib] (partner 0.02 µM)
In outline:
as §1

Regarding PC-14, the relative viability amounted to 0.639 with XMD14-99 + Phenformin (first compound 0.08 µM); 0.644 with XMD14-99 + Phenformin (first compound 0.8 µM); 0.517 with XMD14-99 + Phenformin (first compound 2.53 µM); 0.308 with XMD14-99 + Phenformin (first compound 8 µM); 0.617 in the assay with AZD1208 + Pictilisib (first compound 0.08 µM); 0.743 with AZD1208 + Pictilisib (first compound 0.253 µM). Besides, the relative viability in the assay with AZD1208 + Pictilisib (first compound 0.8 µM) worked out at 0.436; in the assay with AZD1208 + Pictilisib (first compound 2.53 µM), 0.584; with AZD1208 + Pictilisib (first compound 8 µM), 0.482; in the assay with AZD1208 + Vorinostat (first compound 0.08 µM), 0.674; with AZD1208 + Vorinostat (first compound 0.253 µM), 0.78; in the assay with AZD1208 + Vorinostat (first compound 0.8 µM), 0.719. The relative viability turned out to be 0.687 in the assay with AZD1208 + Vorinostat (first compound 2.53 µM); 0.604 with AZD1208 + Vorinostat (first compound 8 µM); 0.681 with AZD1208 + Trametinib (first compound 0.08 µM); 0.704 with AZD1208 + Trametinib (first compound 0.253 µM); 0.512 with AZD1208 + Trametinib (first compound 0.8 µM); 0.662 in the assay with AZD1208 + Trametinib (first compound 2.53 µM). In addition, the relative viability with AZD1208 + Trametinib (first compound 8 µM) is 0.524.

Turning to RERF-LC-KJ, the relative viability is 0.425 in the assay with XMD14-99 + Phenformin (first compound 0.08 µM); 0.45 in the assay with XMD14-99 + Phenformin (first compound 0.8 µM); 0.375 with XMD14-99 + Phenformin (first compound 2.53 µM); 0.388 with XMD14-99 + Phenformin (first compound 8 µM); 0.434 with AZD1208 + Pictilisib (first compound 0.08 µM); 0.526 in the assay with AZD1208 + Pictilisib (first compound 0.253 µM). Moreover, the relative viability with AZD1208 + Pictilisib (first compound 0.8 µM) was determined as 0.464; in the assay with AZD1208 + Pictilisib (first compound 2.53 µM) it was 0.438; with AZD1208 + Pictilisib (first compound 8 µM), 0.368; with AZD1208 + Vorinostat (first compound 0.08 µM), 0.646; with AZD1208 + Vorinostat (first compound 0.253 µM), 0.668; with AZD1208 + Vorinostat (first compound 0.8 µM) it was 0.7. Besides, the relative viability with AZD1208 + Vorinostat (first compound 2.53 µM) stood at 0.658; with AZD1208 + Vorinostat (first compound 8 µM) it was 0.598; with AZD1208 + Trametinib (first compound 0.08 µM), 0.903; in the assay with AZD1208 + Trametinib (first compound 0.253 µM), 0.844; with AZD1208 + Trametinib (first compound 0.8 µM) it was 0.727; in the assay with AZD1208 + Trametinib (first compound 2.53 µM), 0.776. Besides, the relative viability with AZD1208 + Trametinib (first compound 8 µM) came out at 0.548.

On to SK-LU-1, for which the relative viability with XMD14-99 + Phenformin (first compound 0.08 µM) was determined as 0.523; with XMD14-99 + Phenformin (first compound 0.8 µM), 0.563; with XMD14-99 + Phenformin (first compound 2.53 µM), 0.456; with XMD14-99 + Phenformin (first compound 8 µM), 0.322; with AZD1208 + Pictilisib (first compound 0.08 µM), 0.459; with AZD1208 + Pictilisib (first compound 0.253 µM) it was 0.607. For the same cell line, the relative viability in the assay with AZD1208 + Pictilisib (first compound 0.8 µM) worked out at 0.532; with AZD1208 + Pictilisib (first compound 2.53 µM) it was 0.567; with AZD1208 + Pictilisib (first compound 8 µM), 0.431; in the assay with AZD1208 + Vorinostat (first compound 0.08 µM), 0.776; with AZD1208 + Vorinostat (first compound 0.253 µM) it was 0.785; in the assay with AZD1208 + Vorinostat (first compound 0.8 µM), 0.73. The relative viability in the assay with AZD1208 + Vorinostat (first compound 2.53 µM) was found to be 0.783; in the assay with AZD1208 + Vorinostat (first compound 8 µM), 0.736; in the assay with AZD1208 + Trametinib (first compound 0.08 µM), 0.46; with AZD1208 + Trametinib (first compound 0.253 µM), 0.531; with AZD1208 + Trametinib (first compound 0.8 µM), 0.446; with AZD1208 + Trametinib (first compound 2.53 µM), 0.491. Moreover, in the assay with AZD1208 + Trametinib (first compound 8 µM), the relative viability is 0.585.

For the cell line SK-MES-1, the relative viability was found to be 0.644 in the assay with XMD14-99 + Phenformin (first compound 0.08 µM); 0.647 with XMD14-99 + Phenformin (first compound 0.8 µM); 0.575 with XMD14-99 + Phenformin (first compound 2.53 µM); 0.475 in the assay with XMD14-99 + Phenformin (first compound 8 µM); 0.257 in the assay with AZD1208 + Pictilisib (first compound 0.08 µM); 0.326 with AZD1208 + Pictilisib (first compound 0.253 µM). For the same cell line, the relative viability with AZD1208 + Pictilisib (first compound 0.8 µM) amounted to 0.303; with AZD1208 + Pictilisib (first compound 2.53 µM), 0.3; with AZD1208 + Pictilisib (first compound 8 µM) it was 0.291; with AZD1208 + Vorinostat (first compound 0.08 µM), 1.07; with AZD1208 + Vorinostat (first compound 0.253 µM), 1.14; with AZD1208 + Vorinostat (first compound 0.8 µM) it was 1.07. The relative viability was determined as 1.01 with AZD1208 + Vorinostat (first compound 2.53 µM); 1.02 in the assay with AZD1208 + Vorinostat (first compound 8 µM); 0.47 with AZD1208 + Trametinib (first compound 0.08 µM); 0.509 with AZD1208 + Trametinib (first compound 0.253 µM); 0.54 with AZD1208 + Trametinib (first compound 0.8 µM); 0.533 with AZD1208 + Trametinib (first compound 2.53 µM). Also, the relative viability with AZD1208 + Trametinib (first compound 8 µM) worked out at 0.482.

For SW 1573, the relative viability in the assay with XMD14-99 + Phenformin (first compound 0.08 µM) came to 0.357; with XMD14-99 + Phenformin (first compound 0.8 µM) it was 0.386; in the assay with XMD14-99 + Phenformin (first compound 2.53 µM) it was 0.413; with XMD14-99 + Phenformin (first compound 8 µM) it was 0.363; with AZD1208 + Pictilisib (first compound 0.08 µM), 0.411; with AZD1208 + Pictilisib (first compound 0.253 µM), 0.418. Moreover, the relative viability with AZD1208 + Pictilisib (first compound 0.8 µM) came out at 0.421; with AZD1208 + Pictilisib (first compound 2.53 µM), 0.347; with AZD1208 + Pictilisib (first compound 8 µM), 0.344; with AZD1208 + Vorinostat (first compound 0.08 µM), 0.505; with AZD1208 + Vorinostat (first compound 0.253 µM) it was 0.862; in the assay with AZD1208 + Vorinostat (first compound 0.8 µM), 0.456. The relative viability in the assay with AZD1208 + Vorinostat (first compound 2.53 µM) stood at 0.479; with AZD1208 + Vorinostat (first compound 8 µM), 0.404; with AZD1208 + Trametinib (first compound 0.08 µM), 0.433; with AZD1208 + Trametinib (first compound 0.253 µM), 0.438; with AZD1208 + Trametinib (first compound 0.8 µM), 0.44; in the assay with AZD1208 + Trametinib (first compound 2.53 µM), 0.419. In addition, the relative viability with AZD1208 + Trametinib (first compound 8 µM) was 0.317.

Turning to UMC-11, the relative viability with XMD14-99 + Phenformin (first compound 0.08 µM) turned out to be 0.336; in the assay with XMD14-99 + Phenformin (first compound 0.8 µM), 0.314; with XMD14-99 + Phenformin (first compound 2.53 µM), 0.319; with XMD14-99 + Phenformin (first compound 8 µM), 0.275; with AZD1208 + Pictilisib (first compound 0.08 µM), 0.507; with AZD1208 + Pictilisib (first compound 0.253 µM) it was 0.612. The relative viability with AZD1208 + Pictilisib (first compound 0.8 µM) was determined as 0.51; with AZD1208 + Pictilisib (first compound 2.53 µM), 0.389; in the assay with AZD1208 + Pictilisib (first compound 8 µM), 0.344; in the assay with AZD1208 + Vorinostat (first compound 0.08 µM) it was 0.362; with AZD1208 + Vorinostat (first compound 0.253 µM) it was 0.354; in the assay with AZD1208 + Vorinostat (first compound 0.8 µM), 0.3. Further, the relative viability was 0.294 in the assay with AZD1208 + Vorinostat (first compound 2.53 µM); 0.211 in the assay with AZD1208 + Vorinostat (first compound 8 µM); 0.498 with AZD1208 + Trametinib (first compound 0.08 µM); 0.623 with AZD1208 + Trametinib (first compound 0.253 µM); 0.454 with AZD1208 + Trametinib (first compound 0.8 µM); 0.381 with AZD1208 + Trametinib (first compound 2.53 µM). In addition, the relative viability in the assay with AZD1208 + Trametinib (first compound 8 µM) came out at 0.313.
